Laboratory results: patent US11401303B2, “Synthetic peptide BRAP and application in preparation of anti-inflammatory drug for COVID-19 thereof” (TAIAN CITY QIHANG BIOTECHNOLOGY CO., priority 2020, dated 2022)
“Also recorded” adds a separate entry of the source. Ends that are not written are not given here.

What was measured:
[1] = tested on: LPS-induced acute lung injury; test: LPS-induced acute lung injury in mice, HE pathological examination of lung tissues; type: in vivo, Balb/C mice; settings: LPS 5 mg/kgBW i.p.
Description: 1. Grade-SPF male Balb/C mice, body weight: 20±2 g, and n=48
3. Grouping and treatment: mice were randomly divided into 8 groups (A-H), 6 pcs./group;
3-1: 3 different treatments were given for 3 consecutive days respectively before modeling:
A. normal control group: normal saline was injected via the tail vein for once/day;
B. LPS model group: normal saline was injected via the tail vein for once/day;
C. model sp2 administration group: sp2 (16 mg/kgBW) was injected via the tail vein for once/day;
D. model high-dose brap administration group: brap (16 mg/kgBW) was injected via the tail vein for once/day;
E. model medium-dose brap administration group: brap (8 mg/kgBW) was injected via the tail vein for once/day;
F. model low-dose brap administration group: brap (4 mg/kgBW) was injected via the tail vein for once/day;
G. model brap intranasal administration group: brap (3 mM) was administered nasal administration on both sides, 15 μl/each side; once a day;
H. model dexamethasone administration group (a positive control group): dexamethasone, DEX, 5 mg/kg was injected intraperitoneally for once a day.
Animals from groups A-H were continuously administered the above treatments for 30 min respectively, then group A was intraperitoneally injected isopyknic normal saline, and other groups were intraperitoneally injected LPS 5 mg/kgBW.
1. Tissue section and extending
2. Tissues were dewaxed and hydrated.
3. Tissues were dyed with a hematoxylin stain for 5-20 min (adjusted according to different tissues and experimental requirements), and washed by tap water.
4. Then, tissues were differentiated by a differentiation solution for 30 s.
5. Tissues were soaked by tap water for 15 min or warm water (about 50° C.) for 5 min.
6. Tissues were put in an Eosin stain for 2 min (adjusted according to different tissues and experimental requirements), and washed by tap water.
7. Then, the tissues were soaked by tap water for 5 min.
8. Dehydration by gradient alcohol: Tissues were dehydrated by 95%, 100% I, and 100% II for 1 min each;
9. Transparency by xylene: tissues were subjected to xylene I and II for 10 min.
10. Neutral balsam mounting.
11. Then, it was put and dried in an oven at 60° C., and observed under microscope.

[2] = tested on: BK-induced pulmonary microvascular leakage; test: BK-induced pulmonary microvascular leakage in guinea pigs (Evans blue in lung tissue); type: in vivo, guinea pig; settings: intranasal 50 μL/side/day for 3 days
Description: Male guinea pigs weighing 400 g±5% were randomly divided into 6 groups, 6 per group.
1. normal control group: an equal volume of normal saline was injected intravenously on the lateral foot vein, for 3 days;
2. model group: an equal volume of normal saline was injected intravenously on the lateral foot vein, for 3 days;
3. positive control group: 1.25 mg/3 ml/kg BW dexamethasone was injected intravenously on the lateral foot vein, for 3 days;
4. high-dose synthetic peptide brap group: bilateral nasal cavities of the guinea pig were injected the synthetic peptide brap having a concentration of 3.0 mM/L by a micro-sampling gun with 50 μL/side/day for 3 days; […]
2. […] The solution was centrifuged for 5 min at 1500 rpm/min; supernatant was taken to measure the absorbance with a wavelength of 620 nm.
3. Preparation of an EB standard curve: 0.1 mL 0.1% EB solution was taken accurately and added 0.9 mL normal saline to be prepared into 1 mL 0.01% EB standard solution; 0.1 mL EB standard solution was taken and added formamide to 2 mL with a final concentration of 5 mg/L; then the solution was diluted by formamide to 4, 2, 1, and 0.5 mg/L. An absorbancy OD value was measured at a wavelength of 620 nm; OD value was denoted y-coordinate; EB concentration was denoted by x-coordinate; then a standard curve of OD value-EB concentration was drawn, as shown in FIG. 7A.

IL-6 = IL-6 content in blood serum of LPS-induced mice (ELISA); type: in vivo, Balb/C mice
Description: (§1) 1. A reagent was taken out of a kit and balanced for 30 min at room temperature;
(§2) 2. standard wells and sample wells were set, and 50 ul standards at different concentrations were respectively added to each standard well.
(§3) 3. 50 ul sample to be tested (blood sample from each group of mice model constructed in example 9) was first added to the wells of the sample to be tested;
(§4) 4. 100 ul HRP-labeled detection antibody was respectively added to each standard well and well to be tested;
(§5) 5. reaction wells were sealed by a microplate membrane for incubation for 60 min at 37° C.;
(§6) 6. liquid was discarded, water was dried by an absorbent paper, each well was filled with scrubbing solution, standing for 1 min;
(§7) 7. a culture solution was discarded, water was dried by an absorbent paper, and steps 2-6 were operated repeatedly for 5 times;
(§8) 8. 50 ul substrate A/B was respectively added to each well for incubation for 15 min at 37° C.;
(§9) 9. 50 ul stop buffer was added to each well to detect an OD value at 450 nm by an microplate reader within 15 min.

IL-6 mRNA = test: IL6 mRNA expression in lung tissues of LPS-induced mice by qPCR; type: in vivo, Balb/C mice
Description: 1.1 Lung tissue sample: a fresh lung tissue sample from each group of mice constructed in example 9 was taken and quick-frozen by liquid nitrogen as quickly as possible, and kept at […].
2. Extraction of total RNA (a total RNA extraction kit via a paramagnetic particle method was used)
2.1 The tissue sample was cut into small pieces, and ground (50 mg) to powder via liquid nitrogen, and transferred to a 1.5 ml tube free of RNA enzyme (cell sample and other liquid samples required no grinding, and were directly put to the next step).
Using the operational method of Applied Biosystems 7300/7500/7500 Fast Real-Time PCR System and StepOnePlusTMReal-Time PCR System
1. Preparation of a PCR reaction liquid
2. Real Time PCR reaction was performed.
At the end of the reaction, an amplification curve and dissociation curve of Real Time
PCR were confirmed, and 2^−ΔΔct and the like were calculated.

TNF-a = TNF-a content in blood serum of LPS-induced mice (ELISA); type: in vivo, Balb/C mice
Description: as §1, §2, §3, §4, §5, §6, §7, §8, §9

[3] = low, medium and high-dose intravenous injection groups, p<0.01
[4] = nasal dripping group, at 12 h, P<0.05

**Q.** What does the source list for RVLNGPEAPA [brap]?
**A.** Lung tissue pathology (HE) ([1]; 16 mg/kgBW via tail vein once/day): No abnormality; also recorded: no thickened pulmonary septum and no obvious inflammatory cell infiltration; Lung tissue pathology (HE) ([1]; intranasal 3 mM, 15 μl/each side once a day): no obvious abnormality; Lung tissue pathology (HE) ([1]; medium and low dose, 8 and 4 mg/kgBW via tail vein once/day): inflammatory cell infiltration begins to appear; Content of EB in lung tissues compared with the positive control group (dexamethasone) ([2]; P>0.05, except for the low-dose group): no significant difference; Content of EB in lung tissues compared with the model group ([2]; low, medium, high dose (0.33, 1.0, 3.0 mM/L), P<0.01, dose-response relationship): obviously lower than that in the model group; IL-6 level in serum compared with the model group (IL-6; [3]): dose-response relationship; IL-6 level in LPS-induced blood (IL-6; [4]): can decrease; IL-6 mRNA overexpression in lung tissues (IL-6 mRNA; intranasal administration): obviously decrease the overexpression; IL-6 mRNA overexpression in lung tissues (IL-6 mRNA; intravenous injection): obviously decrease the overexpression; TNF-a level in serum compared with the model group (TNF-a; [3]): dose-response relationship; TNF-a level in LPS-induced blood (TNF-a; [4]): can decrease
